Experimental data from US7479385B2, “Sugar kinases with expanded substrate specificity and their use” (Wisconsin Alumni Research Foundation, priority 2003, dated 2009).
Like-named read-outs stand apart in the source and are kept apart here.

How the values were obtained:
[1] = target: T1, E. coli double M173L-Y371H mutant GalK (Escherichia coli, UniProt P0A6T3, M173L/Y371H); assay: Substrate screen / percent conversion of 45 sugars, M173L-Y371H; type: biochemical
T1 construct: His-tag (concluded from Ni-NTA purification and vector pET15b); made in house
T1 sequence (P0A6T3 whole entry M173L/Y371H): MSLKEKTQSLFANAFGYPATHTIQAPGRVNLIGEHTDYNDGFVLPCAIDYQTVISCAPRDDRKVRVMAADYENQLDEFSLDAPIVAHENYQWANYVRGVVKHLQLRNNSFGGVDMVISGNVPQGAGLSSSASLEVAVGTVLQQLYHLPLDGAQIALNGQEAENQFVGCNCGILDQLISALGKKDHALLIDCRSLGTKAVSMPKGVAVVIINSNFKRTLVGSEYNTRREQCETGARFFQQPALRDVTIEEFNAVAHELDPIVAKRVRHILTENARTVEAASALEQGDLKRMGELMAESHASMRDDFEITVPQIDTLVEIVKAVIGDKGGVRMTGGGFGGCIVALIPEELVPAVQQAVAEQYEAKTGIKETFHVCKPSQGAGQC
From the text: Characterization of GalK Mutants. […] The mutant enzymes were purified by using metal affinity chromatography on Ni-NTA Spin Columns (QIAGEN, Valencia, Calif.) and fractions containing homogenous protein were collected, concentrated and quantified using the Bradford protein assay. The DNS assay was used to assess the substrate specificity of the purified GalK mutants as previously described. […] For each sugar, the DNS assay was used to monitor the reaction progress and control assays in the absence of enzyme or sugar were performed in parallel. Standard curves for each sugar were prepared as described. To assess general percent conversion, each reaction contained 15.0 (M enzyme, 8 mM sugar, 14 mM ATP and 3.5 mM MgCl2. […] For monosaccharide kinetic data determination, the sugar concentration was varied over a range of 1-8 mM, under saturating ATP (14 mM). Reaction progress was assessed via the DNS assay, wherein a change in absorbance at 575 nm as a function of time was obtained and the initial velocity determined by the slope of the linear phase in the progress curve. The kinetic data was analyzed using Enzyme Kinetics Module software (SSPS, Inc., Chicago, Ill.) as previously described.
(§1) Characterization of Engineered E. coli GalK Mutants.

[2] = target: T2, E. coli GalK Y371H mutant (Escherichia coli, UniProt P0A6T3, Y371H); type: biochemical
T2 construct: His-tag (concluded from Ni-NTA purification and vector pET15b); made in house; host or cells: E. coli BL21-Gold (DE3), vector pET15b
T2 sequence (P0A6T3 whole entry Y371H): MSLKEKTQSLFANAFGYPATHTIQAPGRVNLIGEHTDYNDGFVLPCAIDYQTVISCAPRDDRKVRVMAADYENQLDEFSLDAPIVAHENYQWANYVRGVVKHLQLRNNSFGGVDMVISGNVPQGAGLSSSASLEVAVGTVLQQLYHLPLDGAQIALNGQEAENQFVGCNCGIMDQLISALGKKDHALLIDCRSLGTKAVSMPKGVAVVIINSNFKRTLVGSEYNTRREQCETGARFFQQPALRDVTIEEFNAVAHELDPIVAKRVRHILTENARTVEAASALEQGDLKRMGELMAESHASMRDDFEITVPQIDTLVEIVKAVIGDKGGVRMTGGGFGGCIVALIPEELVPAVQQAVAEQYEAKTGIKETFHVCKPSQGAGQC
From the text: (§2) Characterization of GalK Mutants. […] The mutant enzymes were purified by using metal affinity chromatography on Ni-NTA Spin Columns (QIAGEN, Valencia, Calif.) and fractions containing homogenous protein were collected, concentrated and quantified using the Bradford protein assay. The DNS assay was used to assess the substrate specificity of the purified GalK mutants as previously described. […] For each sugar, the DNS assay was used to monitor the reaction progress and control assays in the absence of enzyme or sugar were performed in parallel. Standard curves for each sugar were prepared as described. To assess general percent conversion, each reaction contained 15.0 (M enzyme, 8 mM sugar, 14 mM ATP and 3.5 mM MgCl2. The reactions were incubated at 37° C. for 3 hrs after which the reactions were quenched with MeOH, centrifuged (10 min, 12,000 rpm) and then the supernatant (diluted 20-fold) submitted for LC-MS and MS/MS analysis. For monosaccharide kinetic data determination, the sugar concentration was varied over a range of 1-8 mM, under saturating ATP (14 mM). Reaction progress was assessed via the DNS assay, wherein a change in absorbance at 575 nm as a function of time was obtained and the initial velocity determined by the slope of the linear phase in the progress curve. The kinetic data was analyzed using Enzyme Kinetics Module software (SSPS, Inc., Chicago, Ill.) as previously described.
as §1

wild-type E. coli GalK [3] = target: T3, wild-type E. coli GalK (Escherichia coli, UniProt P0A6T3); type: biochemical
T3 construct: made in house
T3 sequence (P0A6T3 1-382): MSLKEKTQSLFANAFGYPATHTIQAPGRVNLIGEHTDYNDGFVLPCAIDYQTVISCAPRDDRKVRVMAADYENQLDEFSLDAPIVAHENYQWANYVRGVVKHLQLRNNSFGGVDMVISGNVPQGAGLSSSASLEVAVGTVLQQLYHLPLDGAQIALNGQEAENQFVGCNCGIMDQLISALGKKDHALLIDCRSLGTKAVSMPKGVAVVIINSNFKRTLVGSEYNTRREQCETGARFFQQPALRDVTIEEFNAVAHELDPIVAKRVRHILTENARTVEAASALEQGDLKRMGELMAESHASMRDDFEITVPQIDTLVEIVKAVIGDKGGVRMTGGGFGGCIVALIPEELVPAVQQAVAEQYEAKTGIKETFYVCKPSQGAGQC
From the text: as §2, §1

[4] = target: T4, E. coli GalK M173L mutant (Escherichia coli, UniProt P0A6T3, M173L); assay: Substrate screen / percent conversion of 45 sugars, M173L; type: biochemical
T4 construct: His-tag (concluded from Ni-NTA purification and vector pET15b); made in house
T4 sequence (P0A6T3 whole entry M173L): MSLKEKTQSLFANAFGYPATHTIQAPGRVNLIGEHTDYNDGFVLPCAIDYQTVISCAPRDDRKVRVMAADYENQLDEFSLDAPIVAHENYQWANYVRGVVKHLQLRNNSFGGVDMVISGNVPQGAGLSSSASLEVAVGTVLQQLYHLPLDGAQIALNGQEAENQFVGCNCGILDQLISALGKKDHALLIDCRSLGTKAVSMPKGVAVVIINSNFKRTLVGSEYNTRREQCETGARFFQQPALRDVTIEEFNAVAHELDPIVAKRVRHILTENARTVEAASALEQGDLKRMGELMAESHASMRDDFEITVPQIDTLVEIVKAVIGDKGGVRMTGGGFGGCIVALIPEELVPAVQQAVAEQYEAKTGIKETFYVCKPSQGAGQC
From the text: as §2, §1

Y371H-M173L GalK = target: T5, Y371H-M173L GalK (Escherichia coli, UniProt P0A6T3, M173L/Y371H); assay: In vivo conversion of fed unnatural sugars to sugar-1-phosphates in E. coli host overexpressing GalK double mutant; type: cell-based; details: sugar fed at 4 mM to E. coli overexpressing Y371H-M173L GalK, 16° C., 16 hr; fluorescence HPLC after labelling with 50
T5 construct: His-tag (concluded: same plasmid pGalKMLYH in pET-15b whose product was purified on Ni-NTA); expressed in transfected cells; host or cells: E. coli host carrying pGalKMLYH (pET-15b), IPTG-induced at 16 °C
T5 sequence (P0A6T3 whole entry M173L/Y371H): as the sequence (P0A6T3 whole entry M173L/Y371H) above
From the text: FIG. 9. In vivo GalK-catalyzed sugar-1-phosphate production. (a) Experimental overview using 6-azido-6-deoxy-D-galactose (22) as an example: 22 is fed to an E. coli host expressing the M173L-Y371H GalK double mutant and the reactants and products subsequently labeled using a […] with the fluorescent tag 50. (b) HPLC chromatographs of bioconversions: i)22 with Y371H-M173L GalK; ii)46 with Y371H-M173L GalK; iii) 22 with wild-type GalK. MS: 50, calculated for C20H25N3O3S 387.2, found m/z 386.1 [M−H]^−; 51, calculated for C26H37N6O11PS 672.2, found m/z 671.2 [M−H]^−; 52, calculated for C26H36N6O8S 592.2, found m/z 591.2 [M−H]
In Vivo Conversion Analysis. […] The reaction mixture was subsequently centrifuged to remove CuI and the supernatant (diluted 2-fold) directly analyzed by HPLC and LC-MS calculated for C26H37N6O11PS 672.20, found m/z […] 671.20.
To assess the Y371H-M173L GalK-catalyzed in vivo production of unnatural sugar-1-phosphates (FIG. 9a), the unnatural sugars (22 or 46, 4 mM final concentration) were fed to an E. coli host (40 mL culture) which overexpressed the promiscuous GalK. After a designated time, the extracts were analyzed via the specific attachment of a fluorescent tag (50), to both starting material (22 or 46) and desired sugar-1-phosphate products, using 1,3-dipolar cycloaddition. […]

L. lactis GalK Y385H = L. lactis GalK Y385H (Lactococcus lactis subsp. lactis, UniProt Q9R7D7, Y385H); details: cited from earlier work
Chain of L. lactis GalK Y385H (Q9R7D7 whole entry Y385H): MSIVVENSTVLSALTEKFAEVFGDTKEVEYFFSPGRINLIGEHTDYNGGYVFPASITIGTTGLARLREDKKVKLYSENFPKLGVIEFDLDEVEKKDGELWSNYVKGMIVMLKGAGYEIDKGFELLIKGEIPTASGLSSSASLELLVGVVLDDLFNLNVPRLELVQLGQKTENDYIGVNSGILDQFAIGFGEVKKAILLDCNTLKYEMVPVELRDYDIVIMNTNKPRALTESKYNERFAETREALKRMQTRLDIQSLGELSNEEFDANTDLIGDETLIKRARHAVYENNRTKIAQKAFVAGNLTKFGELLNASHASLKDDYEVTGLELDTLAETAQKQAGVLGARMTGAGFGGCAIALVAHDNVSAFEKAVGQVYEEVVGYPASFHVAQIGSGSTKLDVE

L. lactis wild-type GalK = target: T6, L. lactis wild-type GalK (Lactococcus lactis subsp. lactis, UniProt Q9R7D7); details: in vitro, cited from earlier work
T6 sequence (Q9R7D7 1-399): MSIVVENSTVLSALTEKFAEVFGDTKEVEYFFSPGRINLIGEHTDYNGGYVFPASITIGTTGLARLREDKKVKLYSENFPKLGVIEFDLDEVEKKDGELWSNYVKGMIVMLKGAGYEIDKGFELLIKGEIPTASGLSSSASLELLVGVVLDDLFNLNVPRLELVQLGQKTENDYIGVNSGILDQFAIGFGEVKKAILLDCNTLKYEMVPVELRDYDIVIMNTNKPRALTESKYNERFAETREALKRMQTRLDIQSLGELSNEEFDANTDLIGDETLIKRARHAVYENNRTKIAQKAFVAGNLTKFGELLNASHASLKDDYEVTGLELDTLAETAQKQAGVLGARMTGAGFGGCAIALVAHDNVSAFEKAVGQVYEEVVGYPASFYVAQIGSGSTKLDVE

[5] = target: T7, E. coli GalK double mutant M173L-Y371H (Escherichia coli, UniProt P0A6T3, M173L/Y371H); assay: Steady-state kinetic profiling (DNS assay), Table 2, M173L-Y371H; type: biochemical; details: sugar 1-8 mM, saturating ATP (14 mM)
T7 construct: His-tag (concluded from Ni-NTA purification and vector pET15b); made in house
T7 sequence (P0A6T3 whole entry M173L/Y371H): as the sequence (P0A6T3 whole entry M173L/Y371H) above
From the text: as §2, with “The kinetic data was analyzed using Enzyme Kinetics Module software (SSPS, Inc., Chicago, Ill.) as previously described.” left out

[6] = target: T8, E. coli GalK mutant M173L (Escherichia coli, UniProt P0A6T3, M173L); assay: Steady-state kinetic profiling (DNS assay), Table 2, M173L; type: biochemical; details: sugar 1-8 mM, saturating ATP (14 mM)
T8 construct: His-tag (concluded from Ni-NTA purification and vector pET15b); made in house
T8 sequence (P0A6T3 whole entry M173L): as the sequence (P0A6T3 whole entry M173L) above
From the text: as §2, with “The kinetic data was analyzed using Enzyme Kinetics Module software (SSPS, Inc., Chicago, Ill.) as previously described.” left out

wild-type E. coli GalK [7] = target: T3, wild-type E. coli GalK; assay: Kinetics and substrate specificity of wild-type GalK with sugar substrates (DNS assay), Table 1; type: biochemical
GalK variant Y371H = target: T9, GalK variant Y371H (Escherichia coli, UniProt P0A6T3, Y371H); assay: Preparative phosphorylation of L-altrose by GalK Y371H, conversion by DNS assay; type: biochemical, E. coli; details: within four hours, 37° C., Y371H 150 μg mL^−1
T9 construct: His-tag (concluded from Ni-NTA purification and vector pET15b); made in house; host or cells: E. coli BL21-Gold (DE3), vector pET15b
T9 sequence (P0A6T3 whole entry Y371H): as the sequence (P0A6T3 whole entry Y371H) above
Protocol: Preparative phosphorylation of L-altrose and product characterization. […] To this solution, ATP (125 mg, 0.23 mmol), MgCl2.6H2O (15.3 mg, 0.07 mmol) were added, the mixture incubated at 37° C. for 5 min, the reaction initiated via the addition of enzyme (Y371H) to a final concentration of 150 μg mL^−1 and reaction progress monitored by TLC. After completion, the mixture was diluted 5-fold in ddH2O and applied to a 200 mL anion exchange column (Q-Sepharose fast flow, Amersham, Piscataway, N.J.). The column was eluted with a gradient of 0-400 mM NaCl and the active fraction was collected and evaporated under reduced pressure. The crude product was desalted on a P-2 gel filtration column (The Nest Group, Southboro, Mass.) to give 16.1 mg of purified product (yield: 52%). [α]D=3.5° (c=1, H2O) ^1H NMR (D2O): 5.48 (dd, J=8.6, 1.8 Hz, 1H), 4.14 (dd, 5.3, 3.3 Hz, 1H), 3.99 (m, 1H), 3.98 (dd, J=4.3, 1.8 Hz, 1H), 3.91 (d, J=3.3, 1H), 3.89 (m, 1H), 3.84 (dd, J=12.1, 7.8 Hz, 1H); ^13C NMR (D2O): 94.10, 76.23, 70.70, 69.99, 65.68, 62.21; ^31P NMR (D2O): 3.77; MS: calculated for C6H13O9P 260.0, found m/z 259.0 [M−H]^−.
Confirmation of L-sugar conversion. […] To confirm the evolved enzyme retains regio- and stereoselectivity with L-sugar substrates, a representative L-sugar reaction product was further characterized. […]

GalK mutant Y371H = GalK mutant Y371H (Escherichia coli, UniProt P0A6T3, Y371H); details: DNS assay and thin layer chromatography
Chain of GalK mutant Y371H (P0A6T3 whole entry Y371H): as above

[N-]=[N+]=NC[C@@H](O)[C@@H](O)[C@H](O)[C@@H](O)C=O [6-azido-6-deoxy-D-glucose (46), 6-azido-6-deoxy-D-glucose]
kinase activity of M173L-Y371H double mutant (in words) [1]: accept | in vitro yield (conversion) quoted for comparison with in vivo ([1]; in vitro): ~50% | in vitro conversion by M173L-Y371H ([1]; in vitro, in 2 hrs): ~15% | substrate of Y371H (in words) [2]: failed | substrate of wild-type E. coli GalK (in words) (wild-type E. coli GalK [3]): not a substrates | substrate of M173L (in words) [4]: failed | in vivo conversion to sugar-1-phosphate (Y371H-M173L GalK): ~15%

O=C[C@H](O)[C@@H](O)[C@H](O)[C@H](O)CO [D-Glc (27), D-glucose]
activity with L. lactis GalK Y385H (in words) (L. lactis GalK Y385H): weak activity | conversion / activity with L. lactis wild-type GalK (in words) (L. lactis wild-type GalK): weak activity | conversion / activity with L. lactis wild-type GalK (in words) (L. lactis wild-type GalK; listed as D-glucose (27)): in vitro conversion | Km ([5]; read-out: Km, M173L-Y371H (D-Glc column)): 4 mM | Vmax, M173L-Y371H [5]: 0.02 (±0.01) mM min^−1 | conversion by M173L ([4]; in 3 hr, 37° C., 8 mM sugar, 14 mM ATP, 3.5 mM MgCl2, 15.0 μM enzyme): 20% | Km ([6]; read-out: Km, M173L (D-Glc column)): 2.6 mM | Vmax, M173L [6]: 0.02 (±0.01) mM min^−1

O=C[C@H](O)[C@@H](O)[C@@H](O)[C@@H](O)CO [L-Alt (16), L-altrose]
substrate of wild-type GalK (in words) (wild-type E. coli GalK [7]): failed as wild-type GalK substrates | conversion of L-altrose (GalK variant Y371H): 91% | kinase activity / turnover by GalK Y371H (in words) (GalK mutant Y371H): substantial degree of kinase activity
